{"source": "paper PMC9600270", "about": "(Cancers, 2022)", "origin": "cited, not measured here", "key": {"RMS mouse xenografts": {"test_system": "RMS mouse xenografts", "design": "method as in PMID 28447920", "settings": "TmR-targeted vincristine-loaded liposomes"}, "RMS cells": {"test_system": "RMS cells", "settings": "TmR-targeted vincristine-loaded liposomes", "excerpt": "We previously selected RMS-targeting peptides by in vitro and in vivo phage display and tested them for their potential to increase vincristine-loaded liposomes’ accumulation in RMS mouse xenografts. […] We hypothesized that a targeting peptide with a stronger binding to RMS might be needed to achieve increased accumulation in RMS tumors in vivo. Here, we selected from the literature peptides binding to receptors k ... || We previously tested the peptide TmR for its potential to increase vincristine-loaded liposomes’ accumulation in RMS mouse xenografts. […] Here, we aimed at selecting a peptide with stronger binding to RMS cells than TmR, and F3 peptide bound to the four RMS cell lines tested 3- to 5-fold more than TmR peptide. Importantly, F3 pe ..."}}, "note": "“And” between values parts separate entries of the source, which are not always exact repeats. Equal values may be shown once. Bridges are numbered along the chain shown (N, C = ends). Where no end group is shown, it is not given here.", "data": [{"sequence": "KRDRGGGCMGTINTRTRRC (disulfide 8-19 (inferred)) [TmR, Furin-targeting RMS peptide, modified version of RMS-P3]", "values": [{"measurement": "Tumor accumulation in vivo compared to non-targeted liposomes", "setting": "RMS mouse xenografts", "result": "did not further increase"}, {"measurement": "Increase of RMS binding of liposomes in vitro", "setting": "RMS cells", "result": "5.4 fold and 5 fold"}]}]}
